Measured values as given in ChEMBL document CHEMBL1157426, “Diazen-1-ium-1,2-diolated nitric oxide donor ester prodrugs of 1-(4-methanesulfonylphenyl)-5-aryl-1H-pyrazol-3-carboxylic acids: synthesis, nitric oxide release studies and anti-inflammatory activities” (Bioorg Med Chem, 2008).

Tests used:
[1] = Induction of nitric oxide release at pH 7.4 PBS after 1.5 hrs; type: physicochemical; settings: buffer, pH 7.4, 1.5 h
Serum = experiment: Induction of nitric oxide release in rat serum at pH 7.4 after 1.5 hrs; type: cell-free; settings: pH 7.4, 1.5 h
Rattus norvegicus = experiment: Antiinflammatory activity in po dosed rat assessed as inhibition of carrageenan-induced paw edema after 3 hrs; type: functional; settings: read-out: ID50 (the source's name)
[2] = target: Prostaglandin G/H synthase 1 (Homo sapiens) (UniProt P23219); settings: at 100 µM
Prostaglandin G/H synthase 1 (Homo sapiens), sequence (P23219 whole entry): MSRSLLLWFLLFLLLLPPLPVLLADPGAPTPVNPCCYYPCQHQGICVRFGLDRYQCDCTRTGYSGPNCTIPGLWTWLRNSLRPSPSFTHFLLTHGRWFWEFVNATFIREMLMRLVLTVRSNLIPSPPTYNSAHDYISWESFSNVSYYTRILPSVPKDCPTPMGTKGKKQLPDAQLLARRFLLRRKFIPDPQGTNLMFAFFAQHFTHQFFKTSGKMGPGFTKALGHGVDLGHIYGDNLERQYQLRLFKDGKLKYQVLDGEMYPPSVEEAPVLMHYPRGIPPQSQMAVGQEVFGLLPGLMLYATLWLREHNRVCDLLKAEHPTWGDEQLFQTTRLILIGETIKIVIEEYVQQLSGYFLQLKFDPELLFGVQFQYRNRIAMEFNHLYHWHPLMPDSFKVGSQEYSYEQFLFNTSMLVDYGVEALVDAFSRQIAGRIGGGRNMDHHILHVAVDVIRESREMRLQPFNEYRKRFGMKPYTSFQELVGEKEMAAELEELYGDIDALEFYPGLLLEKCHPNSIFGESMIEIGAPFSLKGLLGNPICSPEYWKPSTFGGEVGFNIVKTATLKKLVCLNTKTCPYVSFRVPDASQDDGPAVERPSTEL
Description: Inhibition of COX1 at 100 uM

[3] = target: T1, Prostaglandin G/H synthase 2 (Homo sapiens) (UniProt P35354); settings: at 100 µM
T1 sequence (whole entry): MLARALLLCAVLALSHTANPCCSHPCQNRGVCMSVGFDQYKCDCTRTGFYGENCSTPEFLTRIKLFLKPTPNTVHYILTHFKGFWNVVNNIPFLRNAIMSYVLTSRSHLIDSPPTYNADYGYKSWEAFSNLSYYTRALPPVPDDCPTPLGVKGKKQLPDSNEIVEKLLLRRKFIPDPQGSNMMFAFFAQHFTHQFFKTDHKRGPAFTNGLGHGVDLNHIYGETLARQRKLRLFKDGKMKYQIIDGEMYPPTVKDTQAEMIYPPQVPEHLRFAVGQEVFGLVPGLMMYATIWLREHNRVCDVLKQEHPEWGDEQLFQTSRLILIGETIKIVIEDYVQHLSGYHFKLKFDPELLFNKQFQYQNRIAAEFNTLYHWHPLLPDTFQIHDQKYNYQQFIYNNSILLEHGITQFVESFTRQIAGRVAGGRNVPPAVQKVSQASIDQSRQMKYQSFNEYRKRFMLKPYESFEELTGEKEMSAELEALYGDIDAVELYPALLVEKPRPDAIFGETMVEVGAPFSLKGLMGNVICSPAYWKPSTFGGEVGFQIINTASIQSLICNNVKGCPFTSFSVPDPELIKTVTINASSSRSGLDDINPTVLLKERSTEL
Description: Inhibition of COX2 at 100 uM

Compound | Activity [1] [%] | Activity (Serum) [%] | ED50 (Rattus norvegicus) [mg/kg] | also measured
CN(CCO)/[N+]([O-])=N/[O-].[Na+] | 84.5 | 85 | – | –
CS(=O)(=O)c1ccc(-n2nc(C(=O)O)cc2-c2ccccc2)cc1 | – | – | 104 | –
Cc1ccc(-c2cc(C(=O)O)nn2-c2ccc(S(C)(=O)=O)cc2)cc1 | – | – | 85.2 | –
CS(=O)(=O)c1ccc(-n2nc(C(=O)O)cc2-c2ccc(F)cc2)cc1 | – | – | 104 | –
CCOC(=O)c1cc(-c2ccc(C)cc2)n(-c2ccc(S(N)(=O)=O)cc2)n1 | – | – | – | inhibition [2]: 66%; inhibition [3]: 43%

Second part, led by results:

Activity [1] [%] | Activity (Serum) [%] | Compound | ED50 (Rattus norvegicus) [mg/kg] | also measured
7.7 | 67.5 | CC(=O)OCO/N=[N+](\[O-])N(C)CCOC(=O)c1cc(-c2ccccc2)n(-c2ccc(S(C)(=O)=O)cc2)n1 | – | –
9.2 | 70.9 | CC(=O)OCO/N=[N+](\[O-])N(C)CCOC(=O)c1cc(-c2ccc(C)cc2)n(-c2ccc(S(C)(=O)=O)cc2)n1 | – | –
9.3 | 73.6 | CC(=O)OCO/N=[N+](\[O-])N(C)CCOC(=O)c1cc(-c2ccc(F)cc2)n(-c2ccc(S(C)(=O)=O)cc2)n1 | – | –
